Experimental data from US20090068125A1, “TREATMENT FOR MUCOSITIS” (HEPTAGEN LTD, priority 2005, published 2009).

Legend:
[1] = system: human epidermal keratinocytes (HEK); assay: Inhibition of human epidermal keratinocyte proliferation (AlamarBlue reduction); format: cell-based; conditions: two typical experiments (FIG. 1), 0.1 to 100 microM adenosine, 2 days incubation, AlamarBlue fluorescence
Excerpt: Cryopreserved human epidermal keratinocytes (HEK) isolated from skin were obtained from TCS Cellworks, Botolph Claydon, Buckingham, MK18 2LR, UK. Cells were maintained in EpiLife, a defined basal medium designed for human keratinocytes supplemented with selected hormones and growth factors (TCS Cellworks). […] Proliferating cultures were trypsinised, harvested, treated with a trypsin inhibitor and resuspended in growth medium. The viable cells were counted then replated into 24 or 96 well cell culture plates at a density of approximately 2,500 cells/cm2. Cells were incubated overnight at 37° C. at 5% CO2 to allow recovery, the spent medium aspirated from the wells and replaced with fresh growth medium in the presence or absence of adenosine. Adenosine was obtained from Sigma-Aldrich and made up as a 10 mM stock solution in DMSO. Serial dilutions were made in the growth medium and added to the cells to give final concentrations ranging from 0.1 to 100 microM, and the cells returned to the incubator for 2 days. AlamarBlue 2% v/v was added to the wells and reduction measured fluorometrically using a Molecular Dynamics BioLumin 9600 microtitre plate reader using excitation wavelength at 530 nm and […] wavelength at 590 nm. Control experiments in which compounds were not added were carried out to examine the normal time-scale of proliferation. […]

[2] = cited from earlier work

## Nc1ncnc2c1ncn2[C@@H]1O[C@H](CO)[C@@H](O)[C@H]1O [Adenosine]
[1]; Homo sapiens, Keratinocyte, 48 h
  EC50: 1700 nM
[1]
  EC50: 1100 nM
[2]
  half-life in the circulation: < 10 s
